Source: the supplement of paper PMC10331698
± gives the standard deviation of the averaged measurements.

Tests used:
Test in all cases: level (log10 ratio to DMSO vehicle control); higher = higher biomarker level / cell amount than vehicle control
Tetrafluorosuccinic acid = compound: O=C(O)C(F)(F)C(F)(F)C(=O)O [Tetrafluorosuccinic acid]; settings: in DMSO
Procedure: (§1)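 BioMAP Diversity Plus panel of 12 human primary cell co-culture systems (3C, 4H, LPS, SAg, BT, BF4T, BE3C, CASM3C, HDF3CGF, KF3CT, MyoF, Mphg). Compounds were added 1 h before stimulation and left for 24 h (MyoF 48 h; BT 72 h for soluble read-outs or 6 d for IgG). Biomarkers were read by ELISA, cytotoxicity by SRB, PBMC viability and proliferation by Alamar Blue. Each well value was divided by the mean of 8 DMSO control wells on the same plate and log10 transformed; duplicate blinded samples were tested at 4 concentrations.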

Methotrexate = compound: CN(Cc1cnc2nc(N)nc(N)c2n1)c1ccc(C(=O)N[C@@H](CCC(=O)O)C(=O)O)cc1 [Methotrexate]; settings: in DMSO
Procedure: as §1

[1] = compound: FC(F)(F)COC(OCC(F)(F)F)OCC(F)(F)F [tris(Trifluoroethoxy)methane]; settings: in DMSO
Procedure: as §1

[2] = compound: OCC(F)(F)C(F)(F)C(F)(F)C(F)(F)C(F)(F)C(F)(F)C(F)(F)C(F)(F)C(F)(F)C(F)(F)C(F)(F)F [11:1 Fluorotelomer alcohol]; settings: in DMSO
Procedure: as §1

[3] = compound: OCCCC(F)(F)C(F)(F)C(F)(F)C(F)(F)C(F)(F)C(F)(F)C(F)(F)C(F)(F)F [3-(Perfluorooctyl)propanol]; settings: 6700 nM; in DMSO
Procedure: as §1

[4] = compound: FC(F)(F)C(F)(F)C(F)(F)C(F)(F)CCI [1H,1H,2H,2H-Perfluorohexyl iodide]; settings: in DMSO
Procedure: as §1

[5] = compound: OCC(F)(F)C(F)(F)C(F)(F)C(F)(F)C(F)(F)C(F)(F)F [6:1 Fluorotelomer alcohol]; settings: in DMSO
Procedure: as §1

Row | Test System | level (log10) (Tetrafluorosuccinic acid; 6700 nM) | level (log10) (Tetrafluorosuccinic acid; 20000 nM) | level (log10) (Tetrafluorosuccinic acid; 60000 nM) | level (log10) (Methotrexate; 1500 nM) | level (log10) (Methotrexate; 4400 nM) | level (log10) (Methotrexate; 13000 nM) | level (log10) (Methotrexate; 40000 nM) | level (log10) ([1]; 6700 nM) | level (log10) ([1]; 20000 nM) | level (log10) ([1]; 60000 nM) | level (log10) ([2]; 1100 nM) | level (log10) ([2]; 3300 nM) | level (log10) ([2]; 10000 nM) | level (log10) [3] | level (log10) ([4]; 6700 nM) | level (log10) ([4]; 20000 nM) | level (log10) ([4]; 60000 nM) | level (log10) ([5]; 6700 nM) | level (log10) ([5]; 20000 nM) | level (log10) ([5]; 60000 nM)
1 | BT:sIL-17F | 0.0105 ± 0.026 | 0.0175 ± 0.043 | -0.0215 ± 0.033 | -0.039 ± 0.11 | -0.02 ± 0.025 | -0.064 ± 0.088 | -0.179 ± 0.075 | -0.024 ± 0.031 | -0.0565 ± 0.032 | 0.0095 ± 0.084 | 0.308 ± 0.0078 | 0.319 ± 0.096 | 0.33 ± 0.077 | -0.101 ± 0.015 | -0.0555 ± 0.04 | -0.03 ± 0.021 | -0.0755 ± 0.1 | 0.0105 ± 0.0035 | -0.0465 ± 0.025 | -0.388 ± 0.029
2 | BT:PBMC Cytotoxicity | 0.0305 ± 0.012 | 0.026 ± 0.0042 | 0.024 ± 0.014 | -0.037 ± 0.0071 | -0.0455 ± 0.0021 | -0.0635 ± 0.0078 | -0.049 ± 0.035 | 0.002 ± 0.033 | 0.005 ± 0.035 | 0.006 ± 0.0057 | -0.073 ± 0.044 | -0.09 ± 0.038 | -0.0775 ± 0.019 | 0.021 ± 0.028 | -0.024 ± 0.0014 | -0.042 ± 0.0099 | -0.0045 ± 0.029 | 0.017 ± 0.025 | 0.011 ± 0.037 | -0.082 ± 0.03
3 | BF4T:CD106/VCAM-1 | 0.0205 ± 0.0092 | -0.0155 ± 0.029 | -0.033 ± 0.021 | 0.014 ± 0.024 | 0.0165 ± 0.029 | 0.0245 ± 0.016 | 0.0245 ± 0.011 | -0.014 ± 0.0042 | -0.005 ± 0.023 | 0.003 ± 0.023 | 0.0045 ± 0.016 | -0.021 ± 0.025 | -0.016 ± 0.02 | -0.014 ± 0.0099 | -0.0245 ± 0.0021 | -0.044 ± 0.025 | -0.0065 ± 0.086 | 0.0075 ± 0.0021 | -0.007 ± 0.031 | -0.032 ± 0.0028
4 | BF4T:uPA | -0.004 ± 0.0014 | -0.0185 ± 0.0064 | -0.0095 ± 0.0092 | 0.013 ± 0.0085 | 0.0115 ± 0.0078 | 0.005 ± 0.03 | 0.009 ± 0.028 | 0.001 ± 0.0099 | -0.017 ± 0.011 | -0.0095 ± 0.00071 | 0 | -0.005 ± 0.0071 | 0.0015 ± 0.0064 | 0.006 ± 0.0085 | -0.0205 ± 0.0021 | -0.0145 ± 0.013 | 0.0115 ± 0.035 | -0.0155 ± 0.0064 | -0.011 ± 0.018 | -0.023 ± 0.024
5 | BF4T:CD90 | -0.0115 ± 0.012 | -0.015 ± 0.024 | -0.017 ± 0.0042 | 0.001 ± 0.0014 | -0.0145 ± 0.0035 | -0.006 ± 0.016 | 0.0235 ± 0.012 | -0.008 ± 0.0042 | -0.004 ± 0.0028 | -0.0035 ± 0.0021 | 0.0025 ± 0.011 | -0.0025 ± 0.011 | 0.002 ± 0.0042 | -0.0195 ± 0.018 | -0.011 ± 0.0085 | -0.018 ± 0.021 | -0.0075 ± 0.005 | 0.0015 ± 0.0064 | -0.011 ± 0.0014 | 0.0035 ± 0.0092
6 | 4H:CD106/VCAM-1 | 0.029 ± 0.033 | 0.0065 ± 0.005 | 0.0485 ± 0.018 | -0.0045 ± 0.018 | -0.0095 ± 0.0021 | 0.005 ± 0.028 | -0.0005 ± 0.011 | -0.0145 ± 0.0035 | -0.0025 ± 0.0078 | -0.009 ± 0.0071 | 0.0285 ± 0.022 | 0.0115 ± 0.057 | 0.024 ± 0.038 | 0.0065 ± 0.021 | 0.0045 ± 0.0021 | -0.0125 ± 0.0092 | -0.0525 ± 0.011 | 0.0035 ± 0.033 | -0.0045 ± 0.049 | 0.0195 ± 0.0078
7 | 3C:CXCL8/IL-8 | -0.0265 ± 0.015 | -0.0235 ± 0.012 | -0.0005 ± 0.049 | 0.035 ± 0.016 | -0.0015 ± 0.059 | 0.0055 ± 0.023 | 0.042 ± 0.093 | -0.007 ± 0.016 | -0.0085 ± 0.005 | 0.003 ± 0.013 | -0.022 ± 0.027 | -0.0245 ± 0.046 | 0.019 ± 0.082 | -0.008 ± 0.013 | -0.0135 ± 0.018 | -0.007 ± 0.014 | 0.0495 ± 0.00071 | -0.0095 ± 0.013 | 0.0145 ± 0.011 | 0.055 ± 0.057
8 | SAg:CD69 | 0.012 ± 0.061 | 0.0055 ± 0.025 | 0.023 ± 0.02 | -0.001 ± 0.0085 | -0.033 ± 0.024 | -0.0185 ± 0.061 | -0.003 ± 0.04 | 0.022 ± 0.0042 | 0.0105 ± 0.011 | 0.0215 ± 0.0035 | -0.0355 ± 0.021 | -0.0425 ± 0.029 | -0.038 ± 0.023 | -0.036 ± 0.014 | 0.0135 ± 0.015 | -0.003 ± 0.0014 | -0.0125 ± 0.005 | -0.0215 ± 0.011 | -0.0205 ± 0.0092 | -0.0045 ± 0.0064
9 | BF4T:MMP-1 | 0.016 ± 0.02 | 0.008 ± 0.013 | 0.0295 ± 0.0035 | 0.0195 ± 0.015 | 0.0005 ± 0.016 | -0.012 ± 0.03 | 0.0015 ± 0.011 | 0.006 ± 0.02 | -0.007 ± 0.017 | 0.0015 ± 0.00071 | -0.0095 ± 0.005 | -0.01 | -0.0015 ± 0.016 | 0.022 ± 0.0099 | 0.007 ± 0.024 | 0.0105 ± 0.029 | 0.015 ± 0.051 | 0.002 ± 0.014 | 0.0025 ± 0.0078 | -0.011 ± 0.0028
10 | BE3C:CXCL11/I-TAC | 0.002 ± 0.0042 | -0.0025 ± 0.0092 | -0.002 ± 0.0014 | 0.017 ± 0.027 | 0.0135 ± 0.029 | 0.0225 ± 0.015 | 0.016 ± 0.031 | 0.0065 ± 0.012 | -0.002 ± 0.0042 | 0.0015 ± 0.0021 | -0.0085 ± 0.018 | -0.025 ± 0.024 | -0.005 ± 0.013 | -0.003 ± 0.011 | -0.001 ± 0.0014 | 0.0005 ± 0.0035 | 0.005 ± 0.0099 | 0.027 ± 0.0057 | 0.011 ± 0.017 | 0.008 ± 0.0099
11 | BF4T:CCL26/Eotaxin-3 | 0.018 ± 0.04 | -0.02 ± 0.04 | -0.0075 ± 0.015 | 0.057 ± 0.0014 | -0.005 ± 0.14 | 0.0465 ± 0.029 | 0.031 ± 0.072 | 0.0055 ± 0.025 | -0.011 ± 0.0014 | 0.012 ± 0.0057 | -0.012 ± 0.0042 | -0.003 ± 0.011 | -0.0015 ± 0.0078 | -0.029 ± 0.017 | -0.032 ± 0.017 | -0.0525 ± 0.036 | -0.098 ± 0.073 | 0.0385 ± 0.026 | 0.0185 ± 0.022 | 0.0445 ± 0.03
12 | BE3C:CD87/uPAR | 0.0095 ± 0.021 | -0.0045 ± 0.00071 | 0.012 ± 0.014 | 0.0225 ± 0.005 | -0.0145 ± 0.011 | 0 ± 0.016 | 0.0145 ± 0.015 | -0.01 ± 0.0028 | 0.0475 ± 0.047 | -0.0075 ± 0.023 | -0.035 ± 0.0014 | -0.0795 ± 0.012 | -0.0385 ± 0.026 | 0.02 ± 0.047 | -0.0105 ± 0.019 | -0.011 | 0.0285 ± 0.011 | 0.007 ± 0.017 | -0.0075 ± 0.0078 | 0.0105 ± 0.035
13 | 3C:CD87/uPAR | -0.022 ± 0.024 | -0.0085 ± 0.0078 | -0.019 ± 0.033 | 0.0005 ± 0.0092 | 0.001 ± 0.047 | 0.01 ± 0.071 | -0.0095 ± 0.013 | -0.0515 ± 0.063 | -0.032 ± 0.027 | -0.018 ± 0.04 | -0.024 ± 0.023 | -0.013 ± 0.024 | -0.003 ± 0.011 | -0.03 ± 0.04 | 0.0035 ± 0.013 | -0.005 ± 0.0071 | 0.0085 ± 0.025 | -0.021 | -0.01 ± 0.042 | 0 ± 0.0085
14 | SAg:SRB | -0.016 ± 0.023 | -0.015 ± 0.011 | -0.0225 ± 0.015 | -0.002 ± 0.0042 | -0.007 ± 0.0014 | 0.003 ± 0.0071 | -0.0015 ± 0.0021 | -0.0155 ± 0.005 | -0.0135 ± 0.0021 | -0.013 ± 0.017 | -0.0415 ± 0.0092 | -0.066 ± 0.0028 | -0.065 ± 0.013 | -0.009 ± 0.0071 | 0.0005 ± 0.0064 | -0.0005 ± 0.005 | 0.0035 ± 0.0078 | 0.0065 ± 0.015 | 0 ± 0.0042 | 0.008 ± 0.0085
